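Method: 48-hour compound exposure of cells in 96-well plates, five concentrations, linear interpolation of endpoints. GI50 = concentration required for 50% inhibition of growth.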 The source made the active and inactive calls. Rule as the data show it: active = GI50 up to about 1.1 µM and inactive = higher.
What was measured:
Assay in all cases: inhibition of tumour cell growth, NCI panel, 48 h
[1] = tested on: NCI-H226
[2] = tested on: NCI-H522
[3] = tested on: Malme-3M
[4] = tested on: COLO 205
[5] = tested on: MDA-MB-435
[6] = tested on: EKVX
[7] = tested on: SW-620
[8] = tested on: RXF 393
[9] = tested on: HOP-92
[10] = tested on: HCT-15
[11] = tested on: SN12C
[12] = tested on: MOLT-4
[13] = tested on: BT-549
[14] = tested on: MDA-MB-231
[15] = tested on: HOP-62
[16] = tested on: UACC-257
[17] = tested on: OVCAR-8
[18] = tested on: CCRF-CEM
[19] = tested on: HL-60

Structure (SMILES) | GI50 [1] | GI50 [2] | GI50 [3] | GI50 [4] | GI50 [5] | GI50 [6] | GI50 [7] | GI50 [8] | GI50 [9] | GI50 [10] [µM] | GI50 [11] | GI50 [12] | GI50 [13] | GI50 [14] | GI50 [15] | GI50 [16] | GI50 [17] | GI50 [18] | GI50 [19]
CC(C)(C)OC(=O)NCCCCC(N)NC(=O)c1ccccc1 (stereo not drawn) | > 100 µM (inactive) | > 100 µM (inactive) | > 100 µM (inactive) | > 100 µM (inactive) | > 100 µM (inactive) | > 100 µM (inactive) | > 100 µM (inactive) | > 100 µM (inactive) | > 100 µM (inactive) | > 100 | > 100 µM (inactive) | > 100 µM (inactive) | > 100 µM (inactive) | > 100 µM (inactive) | > 100 µM (inactive) | > 100 µM (inactive) | > 100 µM (inactive) | > 100 µM (inactive) | –
O=C1c2cc3c(cc2NC(c2ccccc2F)C1O)OCO3 (stereo not drawn) | 20.9 µM (inactive) | 10.5 µM (inactive) | 9.86 µM (inactive) | 5.3 µM (inactive) | 3.08 µM (inactive) | 16.9 µM (inactive) | 5.19 µM (inactive) | 22.4 µM (inactive) | 33.6 µM (inactive) | 5.45 | 22.2 µM (inactive) | 19.5 µM (inactive) | 57.1 µM (inactive) | 20.2 µM (inactive) | 22.7 µM (inactive) | 22.9 µM (inactive) | 28.2 µM (inactive) | 14 µM (inactive) | –
COc1ccc2c(c1)CCN1CCc3cc(OC)c(OC)cc3CC21 (stereo not drawn) | > 100 µM (inactive) | > 10 µM (inactive) | – | 21.3 µM (inactive) | 66.1 µM (inactive) | > 10 µM (inactive) | 80.5 µM (inactive) | 69 µM (inactive) | 89.3 µM (inactive) | 61 | > 100 µM (inactive) | 39.4 µM (inactive) | 10.3 µM (inactive) | > 100 µM (inactive) | – | 93.8 µM (inactive) | > 100 µM (inactive) | 55 µM (inactive) | –
CC(C)NC(=O)OCCN=C1c2ccccc2CCc2ccccc21 | 25.6 µM (inactive) | – | 15.5 µM (inactive) | 19.1 µM (inactive) | 30.6 µM (inactive) | 23.8 µM (inactive) | 28.3 µM (inactive) | 39.7 µM (inactive) | 24.5 µM (inactive) | 24.7 | 18.8 µM (inactive) | 14.8 µM (inactive) | 13.3 µM (inactive) | 25.2 µM (inactive) | 21 µM (inactive) | 22.9 µM (inactive) | 27 µM (inactive) | 19.6 µM (inactive) | 19.2 µM (inactive)
CC(=O)Nc1ccc(OC2=CCN(C)CC2)cc1 | > 100 µM (inactive) | – | > 100 µM (inactive) | > 100 µM (inactive) | > 100 µM (inactive) | > 100 µM (inactive) | > 100 µM (inactive) | > 100 µM (inactive) | – | > 100 | > 100 µM (inactive) | > 100 µM (inactive) | > 100 µM (inactive) | > 100 µM (inactive) | > 100 µM (inactive) | > 100 µM (inactive) | > 100 µM (inactive) | > 100 µM (inactive) | > 100 µM (inactive)
CC(=O)N(CC(=O)C(=O)NNc1ccoc1)c1ccc(Cl)cc1 | > 100 µM (inactive) | > 100 µM (inactive) | > 100 µM (inactive) | > 100 µM (inactive) | > 100 µM (inactive) | > 100 µM (inactive) | > 100 µM (inactive) | > 100 µM (inactive) | > 100 µM (inactive) | 50.5 | > 100 µM (inactive) | > 100 µM (inactive) | > 100 µM (inactive) | > 100 µM (inactive) | > 100 µM (inactive) | > 100 µM (inactive) | > 100 µM (inactive) | 31.9 µM (inactive) | –
CN1CCc2[nH]nc(-c3n[nH]c4c3CN(C)CC4)c2C1 | > 100 µM (inactive) | > 100 µM (inactive) | > 100 µM (inactive) | > 100 µM (inactive) | > 100 µM (inactive) | > 100 µM (inactive) | > 100 µM (inactive) | > 100 µM (inactive) | > 100 µM (inactive) | > 100 | > 100 µM (inactive) | > 100 µM (inactive) | > 100 µM (inactive) | > 100 µM (inactive) | > 100 µM (inactive) | > 100 µM (inactive) | > 100 µM (inactive) | 72.8 µM (inactive) | –
CCc1ccc(CCN2CCCCC2)nc1 | > 100 µM (inactive) | 52.1 µM (inactive) | > 100 µM (inactive) | > 100 µM (inactive) | > 100 µM (inactive) | > 100 µM (inactive) | > 100 µM (inactive) | > 100 µM (inactive) | 46.3 µM (inactive) | > 100 | > 100 µM (inactive) | > 100 µM (inactive) | > 100 µM (inactive) | > 100 µM (inactive) | > 100 µM (inactive) | > 100 µM (inactive) | > 100 µM (inactive) | > 100 µM (inactive) | –
Cc1cc(C#N)c(Nc2ccccc2[N+](=O)[O-])s1 | 51.1 µM (inactive) | 19.8 µM (inactive) | – | 29.6 µM (inactive) | 18.8 µM (inactive) | 22.3 µM (inactive) | 25.5 µM (inactive) | 3.96 µM (inactive) | 57.9 µM (inactive) | 28.8 | 19.2 µM (inactive) | 55.7 µM (inactive) | 19.4 µM (inactive) | 24.7 µM (inactive) | 24.3 µM (inactive) | 68.5 µM (inactive) | 31 µM (inactive) | 39.3 µM (inactive) | –
COc1cc(/C=N/c2ccc(S(N)(=O)=O)cc2)cc(OC)c1 | > 50 µM (inactive) | – | > 50 µM (inactive) | > 50 µM (inactive) | 14 µM (inactive) | > 50 µM (inactive) | – | > 50 µM (inactive) | > 50 µM (inactive) | 29.6 | > 50 µM (inactive) | 36.9 µM (inactive) | > 50 µM (inactive) | 20.1 µM (inactive) | > 50 µM (inactive) | > 50 µM (inactive) | > 50 µM (inactive) | 34.3 µM (inactive) | 13.6 µM (inactive)
C=C(C)C1Cc2c(cc(O)c3c(=O)c4c(oc23)C(O)Oc2cc(OC)c(OC)cc2-4)O1 (stereo not drawn) | 6.97 µM (inactive) | – | > 10 µM (inactive) | > 10 µM (inactive) | > 10 µM (inactive) | > 10 µM (inactive) | > 10 µM (inactive) | > 10 µM (inactive) | > 10 µM (inactive) | > 10 | > 10 µM (inactive) | > 10 µM (inactive) | > 10 µM (inactive) | > 10 µM (inactive) | > 10 µM (inactive) | > 10 µM (inactive) | > 10 µM (inactive) | > 10 µM (inactive) | > 10 µM (inactive)
CC(SC(=S)N(C)C)C(=O)Nc1nnc(-c2ccc(Cl)cc2)o1 (stereo not drawn) | 40.6 µM (inactive) | – | 90.2 µM (inactive) | 33.3 µM (inactive) | 35.2 µM (inactive) | – | 34.7 µM (inactive) | 80.7 µM (inactive) | > 100 µM (inactive) | 17.7 | 33.7 µM (inactive) | 3.24 µM (inactive) | 89.1 µM (inactive) | 44.6 µM (inactive) | 51.2 µM (inactive) | 65.9 µM (inactive) | 49.7 µM (inactive) | – | –
O=C(/C=C/c1ccc(-c2ccccc2[N+](=O)[O-])o1)NCc1ccc(C(=O)NCCc2ccccc2)cc1 | > 100 µM (inactive) | > 100 µM (inactive) | > 100 µM (inactive) | > 100 µM (inactive) | 3.92 µM (inactive) | > 100 µM (inactive) | > 100 µM (inactive) | > 100 µM (inactive) | > 100 µM (inactive) | > 100 | > 100 µM (inactive) | > 100 µM (inactive) | > 100 µM (inactive) | > 100 µM (inactive) | > 100 µM (inactive) | 46.7 µM (inactive) | > 100 µM (inactive) | – | –
Cc1nn(-c2ccccc2)c(C)c1/C=N/NC(=O)c1sc(=S)n(-c2ccc(Cl)cc2)c1N | 34.5 µM (inactive) | – | 17.5 µM (inactive) | 4.69 µM (inactive) | 9.64 µM (inactive) | 3.55 µM (inactive) | > 100 µM (inactive) | 2.15 µM (inactive) | – | 6.56 | 12.2 µM (inactive) | 8.2 µM (inactive) | 21.2 µM (inactive) | 5.02 µM (inactive) | 6.44 µM (inactive) | 14.4 µM (inactive) | 32.3 µM (inactive) | 6.01 µM (inactive) | 8.17 µM (inactive)
NC(=S)N/N=C(/C(=O)Nc1nc2ccc([N+](=O)[O-])cc2s1)C1C(=O)NC(=S)NC1=O | 33.2 µM (inactive) | – | – | > 100 µM (inactive) | > 100 µM (inactive) | – | > 100 µM (inactive) | 48.6 µM (inactive) | 77.6 µM (inactive) | 42.7 | > 100 µM (inactive) | > 100 µM (inactive) | 70.1 µM (inactive) | > 100 µM (inactive) | – | > 100 µM (inactive) | > 100 µM (inactive) | > 100 µM (inactive) | > 100 µM (inactive)
Cc1cccc(NC(=S)Nc2ccc([N+](=O)[O-])cc2)n1 | > 100 µM (inactive) | – | – | > 100 µM (inactive) | > 100 µM (inactive) | > 100 µM (inactive) | > 100 µM (inactive) | > 100 µM (inactive) | > 100 µM (inactive) | > 100 | – | > 100 µM (inactive) | > 100 µM (inactive) | > 100 µM (inactive) | > 100 µM (inactive) | > 100 µM (inactive) | > 100 µM (inactive) | > 100 µM (inactive) | > 100 µM (inactive)

Reference: ChEMBL document CHEMBL1201862, “PubChem BioAssay data set” (2004)
